The subject of the test is BDF1 mice, P388 leukemia ip, median survival T/C. The test can be described thus: NCI In Vivo Anticancer Drug Screen. Data for tumor model P388 Leukemia (intraperitoneal) in B6D2F1 (BDF1) mice. The conditions noted are these: endpoint: median survival time, higher = longer survival. An outline of the steps: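 Transplantable tumour in mice; compound vs vehicle dosing; survival scored; ratio of treated to control reported.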

[1] abbreviates: dose: 12.5 mg/kg/injection, schedule: Q01DX009 (ip), vehicle: saline.
The mark [2] stands for this setting: dose: 25.0 mg/kg/injection, schedule: Q01DX009 (ip), vehicle: saline with Tween-80.
Setting [3] is: dose: 50.0 mg/kg/injection, schedule: Q01DX009 (ip), vehicle: saline with Tween-80.
Setting [4] is: dose: 100.0 mg/kg/injection, schedule: Q01DX009 (ip), vehicle: saline with Tween-80.
The mark [5] stands for this setting: dose: 200.0 mg/kg/injection, schedule: Q01DX009 (ip), vehicle: saline with Tween-80.
[6] abbreviates: dose: 1.56 mg/kg/injection, schedule: Q01DX009 (ip), vehicle: saline with Tween-80.

“And” between values parts separate entries of the source, which are not always exact repeats. Identical values can stand only once. Toxic doses and inconclusive results are not listed.

Take `COc1cc2cc(c1Cl)N(C)C(=O)C[C@H](OC(=O)CBr)[C@]1(C)O[C@@H]1[C@H](C)[C@@H]1C[C@@](O)(NC(=O)O1)[C@H](OC)C=C/C=C(\C)C2`: the T/C (dose: 0.8 micrograms/kg/injection, schedule: Q01DX009 (ip), vehicle: saline + alcohol) was 153 % of control; the T/C (dose: 1.5 micrograms/kg/injection, schedule: Q01DX009 (ip), vehicle: saline + alcohol) is 170 % of control; the T/C (dose: 3.1 micrograms/kg/injection, schedule: Q01DX009 (ip), vehicle: saline + alcohol) is 180 % of control; the T/C (dose: 6.2 micrograms/kg/injection, schedule: Q01DX009 (ip), vehicle: saline + alcohol) is 183 % of control; the T/C (dose: 12.5 micrograms/kg/injection, schedule: Q01DX009 (ip), vehicle: saline + alcohol) is 153 % of control and 200 % of control; the T/C (dose: 25.0 micrograms/kg/injection, schedule: Q01DX009 (ip), vehicle: saline + alcohol) was 162 % of control and 210 % of control. The T/C reads like this: (dose: 50.0 micrograms/kg/injection, schedule: Q01DX009 (ip), vehicle: saline + alcohol) 189 % of control and 210 % of control; (dose: 100.0 micrograms/kg/injection, schedule: Q01DX009 (ip), vehicle: saline + alcohol) 232 % of control and 120 % of control.

`O=C(Nc1ccc(Nc2ccncc2)cc1)c1ccc(Nc2ccnc3ccc([N+](=O)[O-])cc23)cc1[N+](=O)[O-]`: the T/C under setting [1] was 93 % of control; the T/C (dose: 50.0 mg/kg/injection, schedule: Q01DX009 (ip), vehicle: saline) was 88 % of control; the T/C (dose: 50.0 mg/kg/injection, schedule: Q04DX003 (ip), vehicle: saline) was 111 % of control; the T/C (dose: 100.0 mg/kg/injection, schedule: Q01DX009 (ip), vehicle: saline) is 91 % of control; the T/C (dose: 100.0 mg/kg/injection, schedule: Q04DX003 (ip), vehicle: saline) was 105 % of control; the T/C (dose: 200.0 mg/kg/injection, schedule: Q01DX009 (ip), vehicle: saline) is 98 % of control. In addition, the T/C (dose: 200.0 mg/kg/injection, schedule: Q04DX003 (ip), vehicle: saline) is 93 % of control; the T/C (dose: 400.0 mg/kg/injection, schedule: Q01DX009 (ip), vehicle: saline) is 119 % of control; the T/C (dose: 400.0 mg/kg/injection, schedule: Q04DX003 (ip), vehicle: saline) is 88 % of control.

In the case of `COc1c2c(c(OC(C)=O)c3c1C(=O)c1ccccc1C3=O)CCCC2`, the T/C is 115 % of control (dose: 6.25 mg/kg/injection, schedule: Q01DX001 (ip), vehicle: saline); 115 % of control (dose: 12.5 mg/kg/injection, schedule: Q01DX001 (ip), vehicle: saline); 115 % of control (dose: 25.0 mg/kg/injection, schedule: Q01DX001 (ip), vehicle: saline); 115 % of control (dose: 50.0 mg/kg/injection, schedule: Q01DX001 (ip), vehicle: saline); 115 % of control (dose: 100.0 mg/kg/injection, schedule: Q01DX001 (ip), vehicle: saline).

As for `Cc1ccc2cc3c(ccc4ccccc43)c3c2c1CC3`, the T/C (dose: 7.4 mg/kg/injection, schedule: Q01DX009 (ip), vehicle: saline with Tween-80) was 117 % of control; the T/C under setting [2] was 122 % of control; the T/C under setting [3] was 154 % of control; the T/C (dose: 75.0 mg/kg/injection, schedule: Q01DX009 (ip), vehicle: saline with Tween-80) was 122 % of control; the T/C (dose: 88.0 mg/kg/injection, schedule: Q04DX003 (ip), vehicle: saline with Tween-80) is 118 % of control; the T/C under setting [4] is 162 % of control. For the same compound, the T/C (dose: 132.0 mg/kg/injection, schedule: Q04DX003 (ip), vehicle: saline with Tween-80) is 118 % of control; the T/C (dose: 300.0 mg/kg/injection, schedule: Q01DX009 (ip), vehicle: saline with Tween-80) was 163 % of control; the T/C (dose: 300.0 mg/kg/injection, schedule: Q04DX003 (ip), vehicle: saline with Tween-80) is 118 % of control.

Take `Cc1nc2nc(C(F)(F)F)[nH]c2nc1C`: the T/C under setting [2] was 99 % of control, the T/C under setting [3] is 105 % of control, the T/C under setting [4] was 102 % of control and the T/C under setting [5] was 94 % of control.

Take `CSC(=S)NN=C1CCCCC1`: the T/C (dose: 0.78 mg/kg/injection, schedule: Q01DX009 (ip), vehicle: saline with Tween-80) is 99 % of control; the T/C under setting [6] was 105 % of control; the T/C (dose: 3.13 mg/kg/injection, schedule: Q01DX009 (ip), vehicle: saline with Tween-80) was 104 % of control; the T/C (dose: 6.25 mg/kg/injection, schedule: Q01DX009 (ip), vehicle: saline with Tween-80) was 102 % of control.

Regarding `N=C(N)c1cn(C2OC(CO)C(O)C2O)c2ncnc(N)c12` (configuration not stated), the T/C is, setting by setting: (dose: 0.44 mg/kg/injection, schedule: Q01DX009 (ip), vehicle: saline) 156 % of control; (dose: 0.44 mg/kg/injection, schedule: Q04DX003 (ip), vehicle: saline) 102 % of control; (dose: 0.66 mg/kg/injection, schedule: Q01DX009 (ip), vehicle: saline) 164 % of control; (dose: 0.66 mg/kg/injection, schedule: Q04DX003 (ip), vehicle: saline) 109 % of control; (dose: 1.0 mg/kg/injection, schedule: Q01DX009 (ip), vehicle: Klucel (hydroxypropylcellulose) (HPC)) 160 % of control; (dose: 1.0 mg/kg/injection, schedule: Q01DX009 (ip), vehicle: saline) 162 % of control. Further, the T/C by setting is: (dose: 1.0 mg/kg/injection, schedule: Q04DX003 (ip), vehicle: saline) 100 % of control; (dose: 1.5 mg/kg/injection, schedule: Q01DX009 (ip), vehicle: saline) 173 % of control; (dose: 3.13 mg/kg/injection, schedule: Q01DX009 (ip), vehicle: saline) 202 % of control; (dose: 6.25 mg/kg/injection, schedule: Q04DX003 (ip), vehicle: saline) 154 % of control; (dose: 8.0 mg/kg/injection, schedule: Q01DX009 (ip), vehicle: Klucel (hydroxypropylcellulose) (HPC)) 90 % of control and 105 % of control; under setting [1], 86 % of control. The T/C was 177 % of control (dose: 12.5 mg/kg/injection, schedule: Q04DX003 (ip), vehicle: saline); 159 % of control and 181 % of control (dose: 16.5 mg/kg/injection, schedule: Q04DX003 (ip), vehicle: saline); 181 % of control and 190 % of control (dose: 25.0 mg/kg/injection, schedule: Q04DX003 (ip), vehicle: saline); 181 % of control (dose: 37.5 mg/kg/injection, schedule: Q04DX003 (ip), vehicle: saline).

As to `COC(OC)c1nc(SC)[nH]c(=O)c1C`, the T/C reads like this: under setting [4], 91 % of control; (dose: 100.0 mg/kg/injection, schedule: Q04DX003 (ip), vehicle: saline with Tween-80) 100 % of control; under setting [5], 95 % of control; (dose: 200.0 mg/kg/injection, schedule: Q04DX003 (ip), vehicle: saline with Tween-80) 100 % of control; (dose: 400.0 mg/kg/injection, schedule: Q04DX003 (ip), vehicle: saline with Tween-80) 95 % of control.

Regarding `CC1=NC2=NC(CCCC(=O)OCc3ccccc3)=NC3=CC=CC(=N1)N32`, the T/C under setting [2] is 108 % of control, the T/C under setting [3] is 110 % of control and the T/C under setting [4] was 101 % of control.

As for `C#C/C=C/CC1O/C(=C(\Br)CC)C/C=C\CC1Cl` (configuration not stated), the T/C (dose: 12.5 mg/kg/injection, schedule: Q01DX009 (ip), vehicle: other) is 99 % of control; the T/C (dose: 25.0 mg/kg/injection, schedule: Q01DX009 (ip), vehicle: other) is 114 % of control; the T/C (dose: 50.0 mg/kg/injection, schedule: Q01DX009 (ip), vehicle: other) was 99 % of control.

In the case of `CN(C)N=Nc1ccc(CCCC(=O)NN)cc1`, the T/C by setting is: under setting [6], 109 % of control; (dose: 2.0 mg/kg/injection, schedule: Q01DX009 (ip), vehicle: saline with Tween-80) 120 % of control; under setting [2], 92 % of control; (dose: 50.0 mg/kg/injection, schedule: Q04DX003 (ip), vehicle: saline sonified) 100 % of control; under setting [4], 100 % of control; (dose: 100.0 mg/kg/injection, schedule: Q04DX003 (ip), vehicle: saline sonified) 115 % of control. Besides, the T/C (dose: 200.0 mg/kg/injection, schedule: Q04DX003 (ip), vehicle: saline sonified) is 110 % of control.

Turning to `CCC(C)n1ncc2c(N(C)C)ncnc21` (configuration not stated), the T/C runs as follows: (dose: 12.5 mg/kg/injection, schedule: Q01DX009 (ip), vehicle: Klucel (hydroxypropylcellulose) (HPC)) 100 % of control; (dose: 50.0 mg/kg/injection, schedule: Q01DX009 (ip), vehicle: Klucel (hydroxypropylcellulose) (HPC)) 92 % of control and 95 % of control; (dose: 100.0 mg/kg/injection, schedule: Q04DX003 (ip), vehicle: Klucel (hydroxypropylcellulose) (HPC)) 95 % of control; (dose: 200.0 mg/kg/injection, schedule: Q04DX003 (ip), vehicle: Klucel (hydroxypropylcellulose) (HPC)) 120 % of control.

For the origin of these results see PubChem BioAssay AID328 (DTP/NCI, 2004).
